Values of other authors in US20140044780A1, “Extended-Release Levetiracetam and Method of Preparation” (PharmTak, Inc., priority 2012, published 2014).

With `CC[C@@H](C(N)=O)N1CCCC1=O` (single isomer, unassigned) [Levetiracetam] as the compound, how does the Solubility in water read?
Its Solubility in water is 104 g/100 mL.
